Test results: patent US12018195B2, “Light-selective particles, related methods and related applications” (priority 2014, dated 2024)

Test system: macrophage cells
From the text: Positive control includes only growth media (FIG. A).
Positive control includes only growth media.

Structure (SMILES): CC(=O)[O-].CC(=O)[O-].[Zn+2] [Zn acetate]
- cytotoxic effect on macrophage cells: toxic impact
